Assay results from PMC6222802 (Molecules : A Journal of Synthetic Chemistry and Natural …, 2018).

Assays:
H22 cells [1] = assay: Cell cycle analysis by flow cytometry (PI); assay type: cell-based; conditions: 3 μM, 48 h; for Distribution (%) G2/M: control 12.26%; for percentage of G1-phase cells: control 15.32%; for percentage of S-phase cells: control 72.42%
Procedure: To determine whether the suppression of cell growth by the compounds was caused by a cell-cycle effect, we used a cell cycle analysis kit to detect the DNA content of cell nuclei.
H22 cells were treated with 7a–7e at 3 μM at 37 °C for 48 h and then cells were harvested, centrifuged, resuspended and fixed in 70% EtOH overnight at 4 °C. The fixed cells were digested by RNase A (0.25 mg·mL^−1) at 37 °C for 30 min, and stained with PI (50 μg·mL^−1) in the dark at room temperature for 30 min. The distribution of the cell cycle was analyzed by Flow Cytometer.

S180 cells [2] = tested on: S180 cells
H22 cells [3] = tested on: H22 cells
S180 cells [4] = assay: cells; conditions: S-180, 48 h, read-out: IC50, S180
H22 cells [5] = assay: cells; conditions: Mus musculus, H22, 48 h, read-out: IC50, H22
K562 cells = assay: cells; conditions: Homo sapiens, K562, 48 h, read-out: IC50, K562
MCF-7 cells = assay: cells; conditions: Homo sapiens, MCF7, 48 h, read-out: IC50, MCF-7
LoVo cells = assay: cells; conditions: Homo sapiens, 48 h, read-out: IC50, LoVo
L929 cells = assay: cells; conditions: Mus musculus, L929, 48 h, read-out: IC50, L929
H22 tumor bearing mice = assay: Antitumor activity and toxicity in vivo in H22 tumor bearing mice; design: species or system KM mice; conditions: for tumor inhibition rate: 50 mg/kg, administered for 6 days, H22 tumor bearing mice; for toxicity, organ-to-body weight ratios (organ indexes: thymus, brain, lung, heart, liver, kidney, spleen) compared with NS: 50 and 30 mg/kg (CP 50 mg/kg); for body weight change compared with NS group: even at the dose of 50 mg/kg

Row | Compound | Distribution (%) G2/M (H22 cells [1]) | percentage of G1-phase cells (H22 cells [1]) | percentage of S-phase cells (H22 cells [1]) | SI * selectivity index (SI) of S180 against L929 (S180 cells [2]) | kinetics of growth inhibition, S180 (S180 cells [2]) | SI ** selectivity index (SI) of H22 against L929 (H22 cells [3]) | kinetics of growth inhibition, H22 (H22 cells [3]) | IC50 (S180 cells [4]) | IC50 (H22 cells [5]) | IC50 (K562 cells) | IC50 (MCF-7 cells) | IC50 (LoVo cells) | IC50 (L929 cells) | tumor inhibition rate (H22 tumor bearing mice) | toxicity, organ-to-body weight ratios (organ indexes: thymus, brain, lung, heart, liver, kidney, spleen) compared with NS (H22 tumor bearing mice) | body weight change compared with NS group (H22 tumor bearing mice)
1 | COC(=O)CCC[C@@H]1[C@H]2CCCN3CCC[C@H](CN1P(=O)(Oc1ccc([N+](=O)[O-])cc1)N(CCCl)CCCl)[C@@H]23 (stereo partly shown) [Compound 7d] | 15.66% | 16.10% | 68.24% | 52.40 | concentration-dependent and time-dependent | 58.51 | concentration-dependent and time-dependent | 2.01 ± 0.14 µM | 1.8 ± 0.12 µM | 20.3 ± 2.05 µM | 34.6 ± 2.21 µM | 32.2 ± 2.21 µM | 105 ± 3.1 µM |  |  | 
2 | COC(=O)CCC[C@@H]1[C@H]2CCCN3CCC[C@H](CN1P(=O)(Oc1ccccc1)N(CCCl)CCCl)[C@@H]23 (stereo partly shown) [Compound 7e] | 11.75% | 17.21% | 71.04% | 37.96 |  | 74.89 |  | 3.65 ± 0.25 µM | 1.85 ± 0.16 µM | 32.7 ± 2.56 µM | 86.6 ± 2.67 µM | 70 ± 2.78 µM | 139 ± 3.35 µM | 47.78% | induced low toxicity | did not significantly cause body weight change
3 | O=P1(N(CCCl)CCCl)NCCCO1 (stereo not shown) [CP, cyclophosphamide, reference compound] |  |  |  |  |  |  |  |  |  |  |  |  |  | 72.22% | significantly increase the liver and spleen indexes | 
4 | COc1cccc2c1C(=O)c1c(O)c3c(c(O)c1C2=O)C[C@@](O)(C(=O)CO)C[C@@H]3O[C@H]1C[C@H](N)[C@H](O)[C@H](C)O1 [Dox, Doxorubicin, reference compound] |  |  |  |  |  |  |  | 29.2 ± 2.07 µM | 36.5 ± 2.56 µM | 17.2 ± 1.78 µM | 0.44 ± 0.08 µM | 0.15 ± 0.02 µM | 0.23 ± 0.08 µM |  |  | 
5 | COC(=O)CCC[C@@H]1[C@H]2CCCN3CCC[C@H](CN1P(=O)(Oc1ccc(OC)cc1)N(CCCl)CCCl)[C@@H]23 (stereo partly shown) [Compound 7b] | 12.70% | 15.44% | 71.86% | 29.80 |  | 39.36 |  | 3.5 ± 0.35 µM | 2.65 ± 0.25 µM | 54.5 ± 2.32 µM | 38.9 ± 2.56 µM | 46.2 ± 2.32 µM | 104 ± 3.2 µM |  |  | 
6 | O=C1CCC[C@@H]2[C@H]3CCCN4CCC[C@H](CN12)[C@@H]34 [Compound 1, Sophoridine, reference compound] |  |  |  |  |  |  |  | > 100 µM | > 100 µM | > 100 µM | > 100 µM | > 100 µM | > 100 µM |  |  | 
7 | COC(=O)CCC[C@@H]1[C@H]2CCCN3CCC[C@H](CN1P(=O)(Oc1ccc(C)cc1)N(CCCl)CCCl)[C@@H]23 (stereo partly shown) [Compound 7a] | 15.15% | 32.02% | 52.83% | 62.51 |  | 83.10 |  | 2.89 ± 0.23 µM | 2.17 ± 0.13 µM | 27.1 ± 2.51 µM | 61.2 ± 2.21 µM | 62.5 ± 2.32 µM | 181 ± 4.56 µM | 46.95% | induced low toxicity | did not significantly cause body weight change
8 | COC(=O)CCC[C@@H]1[C@H]2CCCN3CCC[C@H](CN1P(=O)(Oc1ccc(Cl)cc1)N(CCCl)CCCl)[C@@H]23 (stereo partly shown) [Compound 7c] | 6.30% | 51.22% | 42.48% | 80.40 | concentration-dependent and time-dependent | 160.80 | concentration-dependent and time-dependent | 2.02 ± 0.17 µM | 1.01 ± 0.08 µM | 18.1 ± 1.34 µM | 31.9 ± 2.45 µM | 33.4 ± 2.45 µM | 162 ± 4.12 µM | 54.83% | induced low toxicity | did not significantly cause body weight change
